Measurements reported in BindingDB's records for doi:10.1021/jm034182u (Virginia Commonwealth University, 2004).

Target: E3 ubiquitin-protein ligase Mdm2 (Homo sapiens, UniProt Q00987)
Assay: ELISA-Based p53-MDM2 Binding Assay
Conditions: pH 7.6; 37 °C
Protocol: ELISA plates were coated with equivalent amounts of either glutathione S-transferase (GST) protein or GST-MDM2 (1-188) fusion protein and incubated on a microtiter plate shaker overnight at 4 deg C. After washing the wells five times with PBS containing 0.2 M NaCl, the plates were incubated at 37 deg C with blocking solution (PBS containing 5% nonfat dry milk) for 2 hours. After the plates were washed five times, the GST-p53 was added, and the plates were incubated for an additional 30 minutes at 37 deg C. After another washing step, the plates were incubated with the anti-p53 monoclonal pAb421 (Oncogene Science, Inc.) in blocking solution for 1 hour at 37 deg C. The plates were again washed five times and incubated for 1 hour at 37 deg C with a goat anti-mouse IgG alkaline phosphatase conjugate (Promega, Inc.). Excess antibody was removed with 15 washes, the wells were filled with PBS, and the absorbance at 405 nm was read to establish background readings for the wells. […] Finally, the A405 was measured with a microplate spectrophotometer (Molecular Devices, Inc.). […] Absorbance values were normalized by subtraction of equivalent GST-seeded well values from their GST-mdm2 (1-188)-seeded neighbors. IC50 values were determined by fitting data to a three-parameter sigmoidal dose-response function.

E3 ubiquitin-protein ligase Mdm2, sequence (Q00987 whole entry): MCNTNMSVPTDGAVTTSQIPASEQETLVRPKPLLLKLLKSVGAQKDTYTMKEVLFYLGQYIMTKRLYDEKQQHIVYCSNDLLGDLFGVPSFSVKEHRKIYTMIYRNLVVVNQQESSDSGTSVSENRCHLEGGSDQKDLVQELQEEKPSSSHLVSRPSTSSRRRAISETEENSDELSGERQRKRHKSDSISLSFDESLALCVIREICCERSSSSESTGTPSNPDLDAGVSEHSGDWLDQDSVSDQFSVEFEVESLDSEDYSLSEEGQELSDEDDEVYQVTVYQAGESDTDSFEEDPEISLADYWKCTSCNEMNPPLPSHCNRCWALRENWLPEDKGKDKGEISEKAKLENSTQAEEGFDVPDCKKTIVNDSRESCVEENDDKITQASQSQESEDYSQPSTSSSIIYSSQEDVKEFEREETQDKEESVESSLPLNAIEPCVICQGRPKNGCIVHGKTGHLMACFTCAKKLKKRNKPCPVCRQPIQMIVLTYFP

IC50: 31.8 µM
Compound: CC(C)Oc1ccc(C(=O)NS(=O)(=O)c2ccc(N=Nc3c(O)n(-c4ccccc4)n(-c4ccccc4)c3=O)cc2)cc1
